The source of these data is patent US6610738B2, “N-disubstituted carbamoyloxy flavones” (priority 2000, dated 2003).

Read-outs that look alike come from different tables or passages of the source.

Data set [1] addresses acetylcholine esterase (Homo sapiens, UniProt P22303). Put plainly: biochemical.
Data set [2] has as its system acetylcholine esterase. Put plainly: AChE inhibition ex vivo (Table II). Format: in vivo.
The mark [3] stands for this setting: time not given, read-out: AchE inhibition IC50.
Setting [4] is: read-out: AchE inhibition IC50 (5′).
Setting [5] is: read-out: AchE inhibition IC50 (30′).

acetylcholine esterase (Homo sapiens, UniProt P22303), sequence (P22303 32-614): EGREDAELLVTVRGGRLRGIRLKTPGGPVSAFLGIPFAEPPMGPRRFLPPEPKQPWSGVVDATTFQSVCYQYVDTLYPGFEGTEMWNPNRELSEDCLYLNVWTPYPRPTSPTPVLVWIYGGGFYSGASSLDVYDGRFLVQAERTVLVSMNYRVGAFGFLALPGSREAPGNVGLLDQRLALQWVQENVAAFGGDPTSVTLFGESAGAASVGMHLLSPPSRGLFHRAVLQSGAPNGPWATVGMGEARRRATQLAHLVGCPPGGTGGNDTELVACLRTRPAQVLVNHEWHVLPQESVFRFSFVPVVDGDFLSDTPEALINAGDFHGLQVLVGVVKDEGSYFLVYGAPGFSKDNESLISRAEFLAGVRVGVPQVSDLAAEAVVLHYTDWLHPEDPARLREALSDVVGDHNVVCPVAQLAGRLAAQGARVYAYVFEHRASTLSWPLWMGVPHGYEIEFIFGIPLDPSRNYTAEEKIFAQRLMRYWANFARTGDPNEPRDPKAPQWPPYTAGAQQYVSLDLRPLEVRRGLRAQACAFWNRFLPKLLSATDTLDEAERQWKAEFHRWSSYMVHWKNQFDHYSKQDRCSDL

Broadly, the melting point is the temperature of the solid-liquid transition. Molecule `COc1ccccc1-c1cc(=O)c2ccc(OC(=O)N(C)C)cc2o1` showed a melting point of 133.5 to 135 °C.
`CCOc1ccc2c(=O)cc(-c3ccccc3OC(=O)N(C)C)oc2c1` showed a melting point of 166 to 168 °C.
By IC50 is commonly meant the point on the concentration scale where inhibition reaches its midpoint. For `CCN(C)C(=O)Oc1cccc(-c2cc(=O)c3ccccc3o2)c1`, the IC50 on acetylcholine esterase [1] (setting [3]) was 41 µM.
In the case of `CCOc1ccc2c(=O)cc(-c3ccccc3OC(=O)N(C)CC)oc2c1`, the melting point was in the range of 91 to 93.5 °C.
Regarding `CCN(C)C(=O)Oc1ccccc1-c1cc(=O)c2ccccc2o1`, the “AchE inhibition Ex vivo” value in the data set on acetylcholine esterase [2] (at 50 μM/kg) is 14% at 50 μM/kg. In addition, at acetylcholine esterase [1] (setting [3]), the half-inhibitory concentration (IC50) came out at 3.5 µM.
On to `CN(C)C(=O)Oc1ccccc1-c1cc(=O)c2ccccc2o1`, for which the “AchE inhibition Ex vivo” value with acetylcholine esterase [2] (at 40 μM/kg) is listed as 29% at 40 μM/kg. In addition, on acetylcholine esterase [1] (setting [3]), the half-inhibitory concentration (IC50) came out at 2.65 µM.
Take `C[N+](C)(C)c1ccc2oc(-c3ccccc3)cc(=O)c2c1`: the concentration for half-maximal inhibition (IC50) at acetylcholine esterase [1] (setting [4]) is 10.5 µM; on acetylcholine esterase [1] (setting [5]), 48 µM.
`CN(C)C(=O)Oc1ccc2c(=O)cc(-c3ccccc3OC(=O)N(C)C)oc2c1` registered a melting point of 145.5 to 147 °C.
As to `CN(C)CCOc1cccc(-c2cc(=O)c3ccccc3o2)c1`, the IC50 at acetylcholine esterase [1] (setting [4]) turned out to be 10 µM; on acetylcholine esterase [1] (setting [5]), 5.8 µM.
`CN(C)C(=O)Oc1cccc(-c2cc(=O)c3cc(N(C)C)ccc3o2)c1` displayed a melting point of 167 to 168 °C.
Turning to `CN(C)C(=O)Oc1cccc(-c2cc(=O)c3ccccc3o2)c1`, the “AchE inhibition Ex vivo” value in the data set with acetylcholine esterase [2] (at 40 μM/kg) was determined as 42% at 40 μM/kg. For the same molecule, on acetylcholine esterase [1] (setting [3]), the half-inhibitory concentration (IC50) amounted to 1.4 µM.
Regarding `CN(C)C(=O)Oc1cccc(-c2cc(=O)c3cc(N)ccc3o2)c1`, the melting point was in the range of 157 to 159 °C.
For the molecule `COc1ccc(-c2cc(=O)c3cc([N+](C)(C)C)ccc3o2)cc1`, the concentration for half-maximal inhibition (IC50) at acetylcholine esterase [1] (setting [4]) was determined as 5.5 µM; at acetylcholine esterase [1] (setting [5]) it was 6 µM.
